Results on 1 molecule are retold here after patent publication US20250000855A1, “USE OF APOMORPHINE AS THERAPEUTIC AGENT FOR NECROPTOSIS-RELATED DISEASES” (INDUSTRY-ACADEMIC COOPERATION FOUNDATION, YONSEI UNIVERSITY, priority 2021, published 2025).

pIC50: −log10 of the molar value.

By pIC50 is commonly meant the IC50 on a negative log10 scale, so that one unit is a factor of ten.

One assay concerns THP-1 cells. Nature of the assay: Propidium iodide (PI) uptake / cell membrane integrity in TBZ-induced necroptosis. In kind it is cell-based, human. The protocol: Cells were pretreated with Z-VAD (invivoGen, tlrl-vad) and a compound for 1 hour, and necroptosis was induced with TNF-α (ATGen, TNF0501) and BV6 (Biovision, B1332-5) for the indicated time. The prepared cells were appropriately treated according to analysis (Z-VAD: carbobenzoxy-valyl-alanyl-aspartyl, TNF-α: tumor necrosis factor-α, BV6: 4,4′-(1,6-hexanediyl)bis[N-methyl-L-alanyl-(2S)-2-cyclohexylglycyl-L-prolyl-β-phenyl-L-phenylalaninamide)
Cells were plated in a flat, transparent-bottomed, black-walled 96-well plate, and subjected to 7-hour chemical treatment and necroptosis induction, and then PI (BD Biosciences, 556463) was added to a final concentration of 50 μg/ml. After incubation for 10 minutes under the original culture conditions, the cells were centrifuged at 400×g for 5 minutes. The emission wavelength at 617 nm following excitation at 530 nm was measured by real-time fluorescence monitoring on a Varioskan Flash 3001 plate reader. Data collection was performed at 37° C. (FIG. 1A).
As a first screening process, to investigate changes in cell membrane integrity by measuring PI uptake (Experimental Method 1-8), a compound in which the PI uptake had been reduced to less than 30% of the signal intensity upon TBZ treatment was selected.
After treating TBZ+APO-treated THP-1 cells with PI for 10 minutes, the PI taken up by the cells was measured on a microplate reader. […]

The next assay deals with HMGB1 secretion. Nature of the assay: HMGB1 secretion into supernatant of TBZ-treated THP-1 cells, Western blotting. Type of assay: cell-based, human. The following applies: APO 1, 5, 20, 80, or 320 μM for 8 hours, vs TBZ only-treated group, FIG. 4. The protocol: Cells were treated with a drug candidate and then collected using centrifugation at 4° C. and 1,500×g for 5 minutes. A supernatant was centrifuged again at 4° C. and 1,500×g for 5 minutes to remove remaining debris, concentrated at 4° C. and 14,000×g for 30 minutes using Amicon ultra-0.5 centrifugal filter unit 10K (Millipore, UFC501096), and stored. The collected cells were lysed using 1× radioimmunoprecipitation assay (RIPA) buffer (GenDEPOT, R4100-010) containing a 1× protease inhibitor (GenDEPOT, P3100-001) and a phosphatase inhibitor (Thermo Fisher Scientific, 1862495). Subsequently, the cell lysate was centrifuged at 4° C. and 20,000×g for 30 minutes to remove debris. The extracted protein concentration was measured using a bicinchoninic acid (BCA) protein assay kit (Thermo Fisher Scientific, 23225). […]
To test whether secretion of HMGB1, a representative damage-associated molecular pattern, which is one of the characteristics of necroptosis, is inhibited by treating THP-1 cells with necroptosis induced by TBZ treatment with APO, after concentration-dependent treatment (1, 5, 20, 80, or 320 μM) with APO for 8 hours, all of the supernatant was concentrated, analyzed by SDS-PAGE, and investigated with an HMGB1 antibody (Experimental Method 1-6). […]

For the molecule `CN1CCc2cccc3c2[C@H]1Cc1ccc(O)c(O)c1-3` [APO, apomorphine], the pIC50 with THP-1 cells (Homo sapiens, THP-1, concentration-dependent APO treatment, FIG. 1D, read-out: IC50, change in cell membrane integrity) is 5.24. Also, the PI uptake rate result in the assay with THP-1 cells (THP-1 cells treated with TBZ (TNF-α+BV6+Z-VAD)+APO, PI 10 minutes, FIG. 1A) is reported as “effectively reduced”. The “amount of HMGB1 secreted into the supernatant” value in the assay on HMGB1 secretion is given as “decreased”.
